From US10077290B2, “Stabilized antiviral fusion helices” (priority 2011, dated 2018)
“Also recorded” adds a separate entry of the source.

Columns and labels:
[1] = test system: RSV-A2; assay: RSV-A2 infection of A549 cells at 1 MOI, Hep-2 plaque assay titers; assay type: cell-based, Respiratory Syncytial Virus (RSV); conditions: 5 μM peptide
Experimental: In this study A549 cells were plated in a 24 well plate at 30,000 cells/well. The following day, the cells were treated with 5 μM of the indicated stapled SAHF peptide or volume-equivalent DMSO vehicle, followed by RSV-A2 infection at 1 MOI. The cells were infected for 2 h, and the infection medium replaced with 400 μl of DMEM containing 5% FBS and 5 μM of the indicated stapled SAHF peptide. Cells were harvested along with the supernantant 24 h post infection, vortexed for 10 sec, and the supernatant collected, leaving the cell pellet behind. Hep-2 cells were plated on a 24 well plate at 60,000 cells/well the day before use. Plaque assay was performed on Hep-2 cells using the collected supernatant and titers determined at 5 days post infection of Hep-2 cells. The results of this analysis are shown in FIG. 14 in which titers are shown as log 10 pfu/ml and the values represent the mean+/−SEM for two independent experiments (***p<0.001; ****p<0.0001).

[2] = test system: RgRSV; assay: Intranasal RgRSV infection of BALB/c mice after intranasal peptide; assay type: in vivo
Experimental: One hour post treatment, three groups of mice were inoculated with a single dose of RgRSV at 1×10^6 pfu/mouse, with the fourth group receiving a mock inoculation. Mice were sacrificed at 24 hours post infection and the noses harvested, sectioned, stained with DAPI and imaged with an Olympus fluorescent microscope (FIG. 16A; original magnification 20×). Image J analysis was performed on the acquired images (FIG. 16B) and average GFP positive (green) and DAPI positive (blue) cells were calculated from eight images (4 sections) per mouse (bars represent percent GFP positive of total DAPI-positive cells present in the images and error bars represent mean+/−SEM. *, p<0.001). FIG. 16C depicts the results of hematoxylin and eosin staining of the nose sections (original magnification 20×, insets 100×) In FIG. 16C black arrows highlight thickened mucosa.

[3] = test system: RSV-A2; assay: Infection of A549 cells at 0.1 MOI, Hep-2 plaque assay titers: RSV-A2; assay type: cell-based, Respiratory Syncytial Virus (RSV); conditions: 5 μM peptide
Experimental: (§1) In this study A549 cells were plated in a 24 well plate at 30,000 cells/well. The following day, the cells were treated with 5 μM of the indicated stapled SAHF peptide or volume-equivalent DMSO vehicle, followed by infection with RSV-A2, RSV 2-20, or RSV-rA2Line19F within 30 minutes at 0.1 MOI. The supernatant was collected 24 h post infection, and applied to Hep-2 cells that were plated the day prior on a 24 well plate at 60,000 cells/well. Plaque assays were performed on Hep-2 cells using the collected supernatant and titers determined at 5 days post infection of Hep-2 cells. The results of this analysis are shown in FIGS. 15A, 15B and 15C in which titers are shown as pfu/ml and the values represent the mean+/−SEM for two independent experiments (***p<0.001; ****p<0.0001).

[4] = test system: RSV-A2; assay: RSV-A2 lung infection of BALB/c mice after prophylactic intranasal peptide; assay type: in vivo
Experimental: One hour post treatment, three groups of mice were inoculated with a single dose of RSV-A2 at 1×10^6 pfu/mouse. Peptide dosing and viral inoculation was repeated 16 hours post-infection. The fourth group was treated with volume-equivalent vehicle and mock-infected. Two mice from each group were sacrificed 4 days after the second infection and left lung lobes harvested after 1% paraformaldehyde perfusion, followed by cryopreservation in OCT. Sections (5 μm) were treated with 1:1000 dilution of rabbit anti-RSV polyclonal antibody (Millipore) overnight followed by anti-rabbit antibody conjugated to Alexa Fluor 555 (1:400) (red) (Molecular Probes) for 1 h. Sections were washed and mounted with medium containing DAPI (blue) and viewed with an Olympus fluorescent microscope (FIG. 17A; original magnification 20×). Image J analysis was performed on the acquired images and the percentage RSV-positive cells (red) of total DAPI-positive cells (blue) determined from 8 images (4 sections) per mice (FIG. 17B; .error bars represent mean+/−SEM; *, p<0.0001). Four days after the second infection, bronchoalveolar lavage (BAL) was performed on one mouse from each group and BAL supernatant used to determine the viral titers by plaque assay on Hep-2 cells (FIG. 17C; error bars represent mean+/−SEM of plaques counted per in vivo specimen; *, p<0.05). Also at four days after the second infection, cranial and caudal lobes of the right lung from two mice per group were snap frozen on dry ice. A lung homogenate was generated from the cranial lobe and supernatant subjected to viral titer determination (log 10 pfu/ml) (FIG. 17D; error bars represent mean+/−SEM; *, p<0.05). Total RNA was isolated from the caudal lobe of the right lung and quatitative RT-PCR was performed for the RSV-N gene. The results of this analysis are presented in FIG. 17E in which the bar graphs represent the RSV-N gene expression normalized to the mock-infected tissue.

[5] = test system: RSV-rA2Line19F; assay: Infection of A549 cells at 0.1 MOI, Hep-2 plaque assay titers: RSV-rA2Line19F; assay type: cell-based, Respiratory Syncytial Virus (RSV); conditions: 5 μM peptide
Experimental: as §1

[6] = test system: RSV 2-20; assay: Infection of A549 cells at 0.1 MOI, Hep-2 plaque assay titers: RSV 2-20; assay type: cell-based, Respiratory Syncytial Virus (RSV); conditions: 5 μM peptide
Experimental: as §1

[7] = Circular dichroism (CD) alpha-helicity; assay type: physicochemical; conditions: aqueous solution (pH 7, 35° C.)
Experimental: Compounds are dissolved in an aqueous solution (e.g. 5 mM potassium phosphate solution at pH 7, or distilled H2O, to concentrations of 25-50 μM). Circular dichroism (CD) spectra are obtained on a spectropolarimeter (e.g., Jasco J-710, Aviv) using standard measurement parameters (e.g. temperature, 20° C.; wavelength, 190-260 nm; step resolution, 0.5 nm; speed, 20 nm/sec; accumulations, 10; response, 1 sec; bandwidth, 1 nm; path length, 0.1 cm). The α-helical content of each peptide is calculated by dividing the mean residue ellipticity by the reported value for a model helical decapeptide (Yang et al., Methods Enzymol. 130:208 (1986)).
To document secondary structure improvements of hydrocarbon-stapled peptides, circular dichroism (CD) spectra was recorded and analyzed on a Model 410 Aviv Biomedical spectrometer (Walensky, supra; Bird, supra). […] The target peptide concentration for CD studies is 25-50 μM in 50 mM potassium phosphate (pH 7.5) or Milli-Q deionized water, and exact concentrations are confirmed by quantitative AAA of two CD sample dilutions. […] After conversion to mean residue ellipticity, percent α-helicity can be calculated using the equation, % helicity=100×[θ]222/max[θ]222, where max[θ]222=−40,000×[1−(2.5/number of amino acid residues)]. […]

## FD8SISQVNXKINQSLAFI8KSDELLXNVNAGKST (FDXSISQVNXKINQSLAFIXKSDELLXNVNAGKST; two hydrocarbon staples; MOD_RES (3)..(3) Any amino acid; (3)..(10) Crosslink between residues; MOD_RES (10)..(10) Any amino acid; MOD_RES (20)..(20) Any amino acid; (20)..(27) Crosslink between residues; MOD_RES (27)..(27) Any amino acid) [SAHF-H, J]
[1]
  RSV-A2 infection (viral titers): inhibit RSV-A2 infection of A549 cells
[2]; 125 μM intranasally one hour before RgRSV, 24 hours post infection
  intranasal RgRSV infection (percent GFP positive cells in nose sections): blocks intranasal RgRSV infection
[2]; RgRSV-infected, 125 μM intranasally
  inflammation in nose sections (hematoxylin and eosin staining): comparatively decreased inflammatory cells
[3]
  viral infection by RSV-A2 (titers): prevents viral infection
[4]; 125 μM intranasally, dosing and inoculation repeated at 16 hours, 4 days after second infection
  RSV-A2 lung infection, by each measure (RSV-positive cells, BAL and lung homogenate titers, RSV-N gene): inhibited RSV infection; also recorded: inhibits RSV-A2 lung infection
[5]
  viral infection by RSV-rA2 Line 19F (titers): prevents viral infection
[6]
  viral infection by RSV 2-20 (titers): prevents viral infection

## FDASISQVNEKINQSLAFIRKSDELLHNVNAGKST [RSV HR2 (488-522)WT, reference compound]
[4]; caudal lobe of right lung
  RSV-N gene expression in lung (quantitative RT-PCR): no observed effect
[7]
  percent α-helicity: ~23%
